Assay results: patent publication US20220267352A1, “RAPAMYCIN ANALOGS AND USES THEREOF” (Anakuria Therapeutics, Inc., priority 2021, published 2022)

What was measured:
[1] = tested on: p-p70 S6 Kinase (Thr389) in MCF-7 cells; assay: AlphaLISA Ultra pS6K1 assay; assay type: cell-based; conditions: Homo sapiens, 1.5 h; MCF7 cells, 90 min
How it was run: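 Phospho-S6K1 (Thr389) quantified by AlphaLISA Ultra read-out (2 h acceptor, then 2 h donor beads) in lysates of MCF-7 cells. Cells were plated 20–24 h before, refed 2 h, exposed to compounds for 90 min at 0.5% final DMSO, and lysates stored at −80 °C.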

[2] = tested on: pS6K1 T389 and pAkt S473 in PC3 cells; assay: Western blot based pS6K1 and pAKT assay at 24 and 48 hour timepoints; assay type: cell-based
Procedure: Example 57: Western Blot Based pS6K1 and pAKT Assay at 24 and 48 Hour Timepoints
Assay Protocol: • 1. Seed six well plate with 500,000 PC3 cells per well and incubate for 20˜24 hour. • 2. Add compounds into the cell plate. Incubate for 24 to 48 hours. • 4. Plate is placed on ice and the media is removed via aspiration. The wells are washed with 1 mL of 1x PBS and then fully aspirated. • 5. 110 μL of 1% Triton Lysis Buffer is added and each well is scraped vigorously. • 6. Cell homogenates are transferred to 1.5 mL eppendorf tubes on ice and spun down at 4° C. for 10 minutes at 10,000 rpm. • 7. Protein concentration of resulting cell lysates were quantified utilizing a Bradford assay and the samples run analyzed via Western blot on 4-12% Bis/Tris gels with 1×MES buffer. • 8. The gels were transferred onto membranes at 50V for 100 minutes, blocked with Odyssey Blocking buffer for 30 minutes then incubated overnight with primary antibody (pS6K1 T389 Rabbit or pAkt S473 Rabbit) overnight at 4° C. on a rotator. • 9. The membranes were washed 3× with TBS-T with a 5 minute incubation between each wash then incubated with secondary antibody (LiCor IRDye 800 Donkey Anti Rabbit) for at least 30 minutes. • 10. The membranes were washed 3× with TBS-T with a 5 minute incubation between each wash. • 11. The gels were then incubated for 5 minutes with PBS at room temperature then imaged using a Li-Cor.
Compounds that are not selective by comparing pS6K1 and pAKT IC50 by kinase assays are indicated by “NO” in the “mTORC1 selective @ 90 min” column of Table 4. […] Compounds that are not selective at the 24 hrs mark are indicated by “NO” in the “mTORC1 selective @ 24 hrs” column of Table 4. “N/A” stands for “not assayed” and “N/C” stands for “not calculated”.

| Structure (SMILES) | IC50 [1] [nM] | mTORC1 selective @ 24 hrs [2] |
| --- | --- | --- |
| COCCS(=O)(=O)CCO[C@H]1C[C@@H]2CC[C@@H](C)[C@@](O)(O2)C(=O)C(=O)N2CCCC[C@H]2C(=O)O[C@H]([C@H](C)C[C@@H]2CC[C@@H](OC)[C@H](OC)C2)CC(=O)[C@H](C)/C=C(\C)[C@@H](OC)[C@@H](OC)C(=O)[C@H](C)C[C@H](C)/C=C/C=C/C=C/1C [I-43, (24E,26E,28E,29E,35R,36S,37R,38R,40S,42S,44S,45S,46R,47R,56R)-45-[(1R)-2-[(1S,3R,4R)-3,4-dimethoxycyclohexyl]-1-methyl-ethyl]-56-hydroxy-46,47-dimethoxy-44-[2-(2-methoxyethylsulfonyl)ethoxy]-35,36,37,38,48,49-hexamethyl-66,67-dioxa-57-azatricyclohexatriaconta-24,26,28(48),29(49)-tetraene-50,51,52,53,54-pentone] | 10 to 100 | Yes |
| CO[C@@H]1/C(C)=C/[C@@H](C)C(=O)C[C@@H]([C@H](C)C[C@@H]2CC[C@@H](O)[C@H](OC)C2)OC(=O)[C@@H]2CCCCN2C(=O)C(=O)[C@]2(O)O[C@@H](CC[C@H]2C)C[C@H](OCC2COCCO2)/C(C)=C/C=C/C=C/[C@@H](C)C[C@@H](C)C(=O)[C@@H]1OC (stereo partly drawn) [I-27, (25E,27E,29E,30E,33R,34S,35R,36R,38S,40S,42S,43S,45R,46R,55R)-42-(1,4-dioxan-2-ylmethoxy)-55-hydroxy-43-[(1R)-2-[(1S,3R,4R)-4-hydroxy-3-methoxy-cyclohexyl]-1-methyl-ethyl]-45,46-dimethoxy-33,34,35,36,47,48-hexamethyl-66,67-dioxa-56-azatricyclohexatriaconta-25,27,29(47),30(48)-tetraene-49,50,51,52,53-pentone] | 10 to 100 | Yes |
| CO[C@@H]1C[C@H](C[C@@H](C)[C@@H]2CC(=O)[C@H](C)/C=C(\C)[C@@H](O)[C@@H](OC)C(=O)[C@H](C)C[C@H](C)/C=C/C=C/C=C(\C)[C@@H](OCCOC3COC3)C[C@@H]3CC[C@@H](C)[C@@](O)(O3)C(=O)C(=O)N3CCCC[C@H]3C(=O)O2)CC[C@H]1OC(=O)NCCN1CCOCC1 [I-21, [(42S,44R,46R)-4-[(2R)-2-[(27E,29E,31E,32E,38R,39S,40R,41R,43S,45S,47S,48S,50R,51R,61R)-50,61-dihydroxy-51-methoxy-38,39,40,41,52,53-hexamethyl-47-[2-(oxetan-3-yloxy)ethoxy]-54,55,56,57,58-pentaoxo-75,76-dioxa-64-azatricyclohexatriaconta-27,29,31(52),32(53)-tetraen-48-yl]propyl]-46-methoxy-44-cyclohexyl] N-(2-morpholinoethyl)carbamate] | < 1 | Yes |
| COCCOCCO[C@H]1C[C@@H]2CC[C@@H](C)[C@@](O)(O2)C(=O)C(=O)N2CCCC[C@H]2C(=O)O[C@H]([C@H](C)C[C@@H]2CC[C@@H](OCCO)[C@H](OC)C2)CC(=O)[C@H](C)/C=C(\C)[C@@H](OC)[C@@H](OC)C(=O)[C@H](C)C[C@H](C)/C=C/C=C/C=C/1C [I-37, (23E,25E,27E,28E,36R,37S,38R,39R,41S,43S,45S,46S,47R,48R,57R)-57-hydroxy-46-[(1R)-2-[(1S,3R,4R)-4-(2-hydroxyethoxy)-3-methoxy-cyclohexyl]-1-methyl-ethyl]-47,48-dimethoxy-45-[2-(2-methoxyethoxy)ethoxy]-36,37,38,39,49,50-hexamethyl-66,67-dioxa-58-azatricyclohexatriaconta-23,25,27(49),28(50)-tetraene-51,52,53,54,55-pentone] | 1 to 10 | Yes |
| CO[C@@H]1C[C@H](C[C@@H](C)[C@@H]2CC(=O)[C@H](C)/C=C(\C)[C@@H](O)[C@@H](OC)C(=O)[C@H](C)C[C@H](C)/C=C/C=C/C=C(\C)[C@@H](OCC3COCCO3)C[C@@H]3CC[C@@H](C)[C@@](O)(O3)C(=O)C(=O)N3CCCC[C@H]3C(=O)O2)CC[C@H]1OC(F)F (stereo partly drawn) [I-9, (24E,26E,28E,29E,32R,33S,34R,35R,37S,39S,41S,42S,44R,45R,55R)-42-[(1R)-2-[(1S,3R,4R)-4-(difluoromethoxy)-3-methoxy-cyclohexyl]-1-methyl-ethyl]-41-(1,4-dioxan-2-ylmethoxy)-44,55-dihydroxy-45-methoxy-32,33,34,35,46,47-hexamethyl-66,67-dioxa-56-azatricyclohexatriaconta-24,26,28(46),29(47)-tetraene-48,49,50,51,52-pentone] | 1 to 10 | Yes |
| CO[C@@H]1/C(C)=C/[C@@H](C)C(=O)C[C@@H]([C@H](C)C[C@@H]2CC[C@@H](OCCO)[C@H](OC)C2)OC(=O)[C@@H]2CCCCN2C(=O)C(=O)[C@]2(O)O[C@@H](CC[C@H]2C)C[C@H](OCCOCCOC2COC2)/C(C)=C/C=C/C=C/[C@@H](C)C[C@@H](C)C(=O)[C@@H]1OC [I-62, (1R,9S,12S,15R,16E,18R,19R,21R,23S,24E,26E,28E,30S,32S,35R)-1-hydroxy-12-[(1R)-2-[(1S,3R,4R)-4-(2-hydroxyethoxy)-3-methoxy-cyclohexyl]-1-methyl-ethyl]-18,19-dimethoxy-15,17,21,23,29,35-hexamethyl-30-[2-[2-(oxetan-3-yloxy)ethoxy]ethoxy]-11,36-dioxa-4-azatricyclo[30.3.1.0^4,9]hexatriaconta-16,24,26,28-tetraene-2,3,10,14,20-pentone] | 100 to 1000 | No |
| COCCOCCO[C@H]1C[C@@H]2CC[C@@H](C)[C@@](O)(O2)C(=O)C(=O)N2CCCC[C@H]2C(=O)O[C@H]([C@H](C)C[C@@H]2CC[C@@H](OC(F)F)[C@H](OC)C2)CC(=O)[C@H](C)/C=C(\C)[C@@H](O)[C@@H](OC)C(=O)[C@H](C)C[C@H](C)/C=C/C=C/C=C/1C [I-4, (22E,24E,26E,27E,33R,34S,35R,36R,38S,40S,42S,43S,44R,45R,55R)-43-[(1R)-2-[(1S,3R,4R)-4-(difluoromethoxy)-3-methoxy-cyclohexyl]-1-methyl-ethyl]-44,55-dihydroxy-45-methoxy-42-[2-(2-methoxyethoxy)ethoxy]-33,34,35,36,46,47-hexamethyl-64,65-dioxa-56-azatricyclohexatriaconta-22,24,26(46),27(47)-tetraene-48,49,50,51,52-pentone] | 1 to 10 | Yes |
| CO[C@@H]1/C(C)=C/[C@@H](C)C(=O)C[C@@H]([C@H](C)C[C@@H]2CC[C@@H](OC)[C@H](OC)C2)OC(=O)[C@@H]2CCCCN2C(=O)C(=O)[C@]2(O)O[C@@H](CC[C@H]2C)C[C@H](OCC2COCCO2)/C(C)=C/C=C/C=C/[C@@H](C)C[C@@H](C)C(=O)[C@@H]1OC (stereo partly drawn) [I-40, (26E,28E,30E,31E,34R,35S,36R,37R,39S,41S,43S,44S,46R,47R,56R)-44-[(1R)-2-[(1S,3R,4R)-3,4-dimethoxycyclohexyl]-1-methyl-ethyl]-43-(1,4-dioxan-2-ylmethoxy)-56-hydroxy-46,47-dimethoxy-34,35,36,37,48,49-hexamethyl-66,67-dioxa-57-azatricyclohexatriaconta-26,28,30(48),31(49)-tetraene-50,51,52,53,54-pentone] | ≥ 1000 | Yes |
| CO[C@@H]1C[C@H](C[C@@H](C)[C@@H]2CC(=O)[C@H](C)/C=C(\C)[C@@H](O)[C@@H](OC)C(=O)[C@H](C)C[C@H](C)/C=C/C=C/C=C(\C)[C@@H](OCCOC3COC3)C[C@@H]3CC[C@@H](C)[C@@](O)(O3)C(=O)C(=O)N3CCCC[C@H]3C(=O)O2)CC[C@H]1OCCCN1CCOCC1 [I-14, (27E,29E,31E,32E,39R,40S,41R,42R,44S,46S,48S,49S,51R,52R,61R)-51,61-dihydroxy-52-methoxy-49-[(1R)-2-[(1S,3R,4R)-3-methoxy-4-(3-morpholinopropoxy)cyclohexyl]-1-methyl-ethyl]-39,40,41,42,53,54-hexamethyl-48-[2-(oxetan-3-yloxy)ethoxy]-73,74-dioxa-63-azatricyclohexatriaconta-27,29,31(53),32(54)-tetraene-55,56,57,58,59-pentone] | < 1 | Yes |
| CO[C@@H]1/C(C)=C/[C@@H](C)C(=O)C[C@@H]([C@H](C)C[C@@H]2CC[C@@H](OP(C)(C)=O)[C@H](OC)C2)OC(=O)[C@@H]2CCCCN2C(=O)C(=O)[C@]2(O)O[C@@H](CC[C@H]2C)C[C@H](OCCOC2CCOCC2)/C(C)=C/C=C/C=C/[C@@H](C)C[C@@H](C)C(=O)[C@@H]1OC [I-55, (1R,9S,12S,15R,16E,18R,19R,21R,23S,24E,26E,28E,30S,32S,35R)-12-[(1R)-2-[(1S,3R,4R)-4-dimethylphosphoryloxy-3-methoxy-cyclohexyl]-1-methyl-ethyl]-1-hydroxy-18,19-dimethoxy-15,17,21,23,29,35-hexamethyl-30-(2-tetrahydropyran-4-yloxyethoxy)-11,36-dioxa-4-azatricyclo[30.3.1.0^4,9]hexatriaconta-16,24,26,28-tetraene-2,3,10,14,20-pentone] |  | No |
